Source: patent US20250230193A1, “CYCLIC COMPOUND HAVING SELECTIVE KRAS INHIBITORY EFFECT ON HRAS AND NRAS” (CHUGAI SEIYAKU KABUSHIKI KAISHA, priority 2022, published 2025)
Where a SMILES comes first, the peptide text is derived from it. Bridges are numbered along the chain shown (N, C = ends). [ ]: non-standard residue; d: D form. The star is where a group is joined. hPhe(3-Cl-4-CF3) = N[C@@H](CCc1ccc(C(F)(F)F)c(Cl)c1)C(=O)O; NEtPhe(4-Me) = CCN[C@@H](Cc1ccc(C)cc1)C(=O)O; NMeAbu(4,4,4-F3) = CN[C@@H](CC(F)(F)F)C(=O)O; NMeGly(cPent) = CN[C@H](C(=O)O)C1CCCC1; NMeD = CN[C@@H](CC(=O)O)C(=O)O; Morpholide = C1CN(*)CCO1; Ac5c = NC1(C(=O)O)CCCC1; Sar = CNCC(=O)O

Experiments:
[1] = biological target: GDP-bound NRAS wild-type protein (Homo sapiens, UniProt P01111); test: Binding to NRAS by surface plasmon resonance (SPR), Single Cycle Kinetics; details: for NRAS/KRAS (ratio of KD value with respect to NRAS to KD value with respect to KRAS): GDP-bound NRAS wild-type vs GDP-bound KRAS wild-type; for NRAS/KRAS (ratio of KD value with respect to GDP-bound NRAS wild-type protein to KD value with respect to KRAS): class symbols
[2] = biological target: GDP-bound HRAS wild-type protein (Homo sapiens, UniProt P01112); test: Binding to HRAS by surface plasmon resonance (SPR), Single Cycle Kinetics; details: for HRAS/KRAS (ratio of KD value with respect to HRAS to KD value with respect to KRAS): GDP-bound HRAS wild-type vs GDP-bound KRAS wild-type; for HRAS/KRAS (ratio of KD value with respect to GDP-bound HRAS wild-type protein to KD value with respect to KRAS): class symbols
GDP-bound HRAS wild-type protein, sequence (P01112 whole entry): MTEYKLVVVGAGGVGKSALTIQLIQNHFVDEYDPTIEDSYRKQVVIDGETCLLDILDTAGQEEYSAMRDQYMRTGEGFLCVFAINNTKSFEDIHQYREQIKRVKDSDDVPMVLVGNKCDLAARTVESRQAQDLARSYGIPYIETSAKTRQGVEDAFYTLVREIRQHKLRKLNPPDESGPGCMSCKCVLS

GDP-bound NRAS wild-type protein, sequence (P01111 whole entry): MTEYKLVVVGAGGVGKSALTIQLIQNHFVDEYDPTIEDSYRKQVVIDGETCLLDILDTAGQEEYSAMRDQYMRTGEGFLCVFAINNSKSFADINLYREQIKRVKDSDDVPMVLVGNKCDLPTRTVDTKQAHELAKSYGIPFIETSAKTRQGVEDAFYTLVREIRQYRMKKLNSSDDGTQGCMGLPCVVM

SMILES	NRAS/KRAS (ratio of KD value with respect to NRAS to KD value with respect to KRAS) ([1]; KD ratio, SPR)	HRAS/KRAS (ratio of KD value with respect to HRAS to KD value with respect to KRAS) ([2]; KD ratio, SPR)	NRAS/KRAS (ratio of KD value with respect to GDP-bound NRAS wild-type protein to KD value with respect to KRAS) ([1]; KD ratio NRAS/KRAS)	HRAS/KRAS (ratio of KD value with respect to GDP-bound HRAS wild-type protein to KD value with respect to KRAS) ([2]; KD ratio HRAS/KRAS)	also measured
CC[C@H](C)[C@@H]1NC(=O)[C@H](COC)N(C)C(=O)C[C@@H](C(=O)N2CCOCC2)N(C)C(=O)[C@H](C2CCCC2)N(C)C(=O)C2(CCCC2)NC(=O)[C@@H]2C[C@H](O)CN2C(=O)[C@H](CCc2cc(F)c(C(F)(F)F)c(F)c2)NC(=O)CN(C)C(=O)[C@H](Cc2ccc(C(F)(F)F)cc2)N2CCCCC[C@@H](C2=O)N(C)C(=O)CN(C)C1=O [PP0847]	B (a compound having 3 or more and less than 10 is denoted as B)	B (a compound having 3 or more and less than 10 is denoted as B)	–	–	–
CCC(CC)[C@H]1C(=O)N(C)[C@H](C(=O)N(C)C)CC(=O)N(C)[C@@H](COC)C(=O)N[C@@H]([C@@H](C)CC)C(=O)N(C)CC(=O)N(C)[C@H]2C/C=C\CCN(C2=O)[C@@H](CC2CCC(F)(F)CC2)C(=O)N(C)CC(=O)N[C@@H](CCc2cc(F)c(C(F)(F)F)c(F)c2)C(=O)N2C[C@@H](C)C[C@H]2C(=O)NC2(CC(C)(C)C2)C(=O)N1C [PP2448]	–	–	–	–	NRAS/KRAS (ratio of KD value with respect to NRAS to KD value with respect to KRAS) ([1]; SPR): A (a compound having 10 or more and less than 20 is denoted as A); HRAS/KRAS (ratio of KD value with respect to HRAS to KD value with respect to KRAS) ([2]; SPR): A (a compound having 10 or more and less than 20 is denoted as A)
CC[C@H](C)[C@@H]1NC(=O)[C@H](CC(F)(F)F)N(C)C(=O)C[C@@H](C(=O)N2CCOCC2)N(C)C(=O)[C@H](C2CCCC2)N(C)C(=O)C2(CCCC2)NC(=O)[C@@H]2CCCN2C(=O)[C@H](CCc2ccc(C(F)(F)F)c(Cl)c2)NC(=O)CN(C)C(=O)[C@H](Cc2ccc(C)cc2)N(CC)C(=O)CN(C)C(=O)CN(C)C1=O [PP0032] ([NMeAbu(4,4,4-F3)]I[Sar][Sar][NEtPhe(4-Me)][Sar][hPhe(3-Cl-4-CF3)]P[Ac5c][NMeGly(cPent)][NMeD]-Morpholide; lactam N-11)	–	–	–	–	NRAS/KRAS (ratio of KD for GDP-bound NRAS wild-type to KD for KRAS) ([1]; KD ratio NRAS/KRAS, SPR): C (A compound having a KD ratio of 0.1 or more and less than 3 is denoted as C); HRAS/KRAS (ratio of KD for GDP-bound HRAS wild-type to KD for KRAS) ([2]; KD ratio HRAS/KRAS, SPR): C (A compound having a KD ratio of 0.1 or more and less than 3 is denoted as C)
CCO[C@@H]1C[C@H]2C(=O)NC3(CCC3)C(=O)N(C)[C@@H](C3CCCC3)C(=O)N(C)[C@H](C(=O)N3CCOCC3)CC(=O)N(C)[C@@H](CC)C(=O)N[C@@H]([C@@H](C)CC)C(=O)N(C)CC(=O)N(C)[C@H]3CC(C)=CCN(C3=O)[C@@H](Cc3ccc(C(F)(F)F)cc3)C(=O)N(C)CC(=O)N[C@@H](CCc3cc(F)c(C(F)(F)F)c(F)c3)C(=O)N2C1 [PP1041]	C (A compound having a KD ratio of 0.1 or more and less than 3 is denoted as C)	C (A compound having a KD ratio of 0.1 or more and less than 3 is denoted as C)	–	–	–
CCO[C@@H]1C[C@H]2C(=O)NC3(CC(C)(C)C3)C(=O)N(C)[C@@H](C3CCCC3)C(=O)N(C)[C@H](C(=O)N3CCCC3)CC(=O)N(C)[C@H]3CCC/C=C/c4ccc(cc4)C[C@@H](C(=O)N(C)CC(=O)N[C@@H](CCc4cc(F)c(C(F)(F)F)c(F)c4)C(=O)N2C1)N1CC/C=C\C[C@@H](C1=O)N(C)C(=O)CN(C1CC1)C(=O)[C@H]([C@@H](C)CC)NC3=O [PP2583]	–	–	A (a compound having 10 or more and less than 20 is denoted as A)	A (a compound having 10 or more and less than 20 is denoted as A)	–
CC[C@H](C)[C@@H]1NC(=O)[C@H](COC)N(C)C(=O)C[C@@H](C(=O)N(C)C)N(C)C(=O)[C@H](C2CCCCC2)N(C)C(=O)C2(CC(C)(C)C2)NC(=O)[C@@H]2C[C@@H](OC3CCC3)CN2C(=O)[C@H](CCc2cc(F)c(C(F)(F)F)c(F)c2)NC(=O)CN(C)C(=O)[C@H](Cc2ccc(C(F)(F)F)cc2)N2CC/C=C\C[C@@H](C2=O)N(C)C(=O)CN(C)C1=O [PP2655]	–	–	AA (a compound having 20 or more is denoted as AA)	A (a compound having 10 or more and less than 20 is denoted as A)	–
